Measurements: patent US20240317707A1, “COVALENT AND NON-COVALENT INHIBITORS OF CORONAVIRUS PAPAIN-LIKE PROTEASE” (UT-Battelle, LLC, priority 2023, published 2024)

Experiments:
[1] = tested on: SARS-CoV-2 isolate USA-WA1/2020; assay: microbe, parasite or virus in culture; assay type: cell-based; details: Severe acute respiratory syndrome coronavirus 2, Vero C1008, Vero E6 TMPRSS ACE2 cells, treated 1 hr with compound, MOI=0.1, 48 h; for EC50: read-out: CPE EC50; for EC90: read-out: CPE EC90
[2] = in vitro; details: African green monkey

| SMILES | EC50 [1] [nM] | EC90 [1] [nM] | CC50 at 48 h [2] [nM] |
| --- | --- | --- | --- |
| COC(=O)/C=C/C(=O)NNC(=O)CCc1ccccc1C(=O)NC1(c2cccc3ccccc23)CC1 [NEU-7768] | 22 | 250 | > 10000 |
| COC(=O)/C=C/C(=O)NNC(=O)CCc1ccccc1C(=O)NC1(c2cccc3ccccc23)COC1 [NEU-7769] | 1500 | 3200 | > 10000 |
| COC(=O)/C=C/C(=O)NNC(=O)CCc1ccccc1C(=O)N[C@H](C)c1cccc(-c2cnc(CN3CC[C@H](O)C3)s2)c1 [NEU-7770] | 140 | 880 | > 10000 |
| COC(=O)/C=C/C(=O)NNC(=O)CCc1ccccc1C(=O)N[C@@H](c1cccc2ccccc12)C(F)(F)F [NEU-7772] | > 10000 | – | > 10000 |
| COC(=O)/C=C/C(=O)NNC(=O)C(F)(F)c1ccccc1C(=O)N[C@H](C)c1cccc2ccccc12 [NEU-7792] | 240 | 820 | > 10000 |
| C[C@@H](NC(=O)c1ccccc1CCC(=O)NNC(=O)/C=C/C(=O)O)c1cccc2ccccc12 [NEU-8114] | 15 | 160 | > 10000 |
